This is an account of results in US9487510B2, “Substituted heterocyclic acetamides as kappa opioid receptor (KOR) agonists” (Dr. Reddy's Laboratories Ltd., priority 2012, dated 2016).

Usually EC50 stands for the midpoint of the concentration-response curve. A higher EC50 goes with a need for much substance.

In this test the target is human KOR receptor (Homo sapiens, UniProt P41145). Briefly: IP-One HTRF assay, potency of KOR agonists, dose-response in transiently transfected COS-7 cells. It is filed as cell-based. (In general: Time-resolved FRET reads energy transfer from a long-lived donor to a nearby acceptor.)
Sequence of human KOR receptor (P41145 whole entry): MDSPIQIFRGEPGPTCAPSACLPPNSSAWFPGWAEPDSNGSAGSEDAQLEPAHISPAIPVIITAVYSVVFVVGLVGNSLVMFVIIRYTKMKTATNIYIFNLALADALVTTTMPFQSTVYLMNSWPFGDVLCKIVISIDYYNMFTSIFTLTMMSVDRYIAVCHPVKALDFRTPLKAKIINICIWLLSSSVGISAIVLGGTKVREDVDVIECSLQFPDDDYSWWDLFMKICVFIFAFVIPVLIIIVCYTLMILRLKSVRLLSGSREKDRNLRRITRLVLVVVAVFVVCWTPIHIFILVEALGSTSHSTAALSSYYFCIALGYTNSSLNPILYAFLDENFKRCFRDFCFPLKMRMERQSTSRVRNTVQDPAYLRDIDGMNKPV
For `CC(C)N(C(=O)Cc1ccc2c(c1)NC(=O)CS2(=O)=O)[C@H](CN1CC[C@H](O)C1)c1cccc(OC(F)(F)F)c1` [Example 138, 2-(1,1-dioxido-3-oxo-3,4-dihydro-2H-benzo[b][1,4]thiazin-6-yl)-N-((S)-2-((S)-3-hydroxypyrrolidin-1-yl)-1-(3-(trifluoromethoxy)phenyl)ethyl)-N-isopropylacetamide], the EC50 fell in the range of 51 to 100 nM.

Turning to `O=C1CS(=O)(=O)c2ccc(CC(=O)N(C3CC3)[C@H](CN3CC[C@H](O)C3)c3cccc(OC(F)(F)F)c3)cc2N1` [Example 139], the concentration giving a half-maximal response (EC50) was not above 50 nM.

`CN(C(=O)Cc1ccc2c(c1)NC(=O)C(C)(C)S2)[C@H](CN1CC[C@H](O)C1)c1cccc(OC(F)(F)F)c1` [Example 143, 2-(2,2-dimethyl-3-oxo-3,4-dihydro-2H-benzo[b][1,4]thiazin-6-yl)-N-((S)-2-((S)-3-hydroxypyrrolidin-1-yl)-1-(3-(trifluoromethoxy)phenyl)ethyl)-N-methylacetamide] showed an EC50 not above 50 nM.

As for `CN(C(=O)Cc1ccc2c(c1)NC(=O)CS2(=O)=O)[C@H](CN1CC[C@H](O)C1)c1cccc(OCC(F)(F)F)c1` [Example 144, 2-(1,1-dioxido-3-oxo-3,4-dihydro-2H-benzo [b][1,4]thiazin-6-yl)-N-((S)-2-((S)-3-hydroxypyrrolidin-1-yl)-1-(3-(2,2,2-trifluoroethoxy)phenyl)ethyl)-N-methylacetamide], the half-maximal effective concentration (EC50) is not above 50 nM.

`Cc1cccc([C@@H](CN2CC[C@H](O)C2)N(C)C(=O)Cc2ccc3c(c2)NC(=O)CS3(=O)=O)c1` [Example 145, 2-(1,1-dioxido-3-oxo-3,4-dihydro-2H-benzo [b][1,4]thiazin-6-yl)-N-((S)-2-((S)-3-hydroxypyrrolidin-1-yl)-1-(m-tolyl)ethyl)-N-methylacetamide] returned a concentration giving a half-maximal response (EC50) not above 50 nM.

The molecule `CN(C(=O)Cc1ccc2c(c1)NC(=O)CS2(=O)=O)[C@H](CN1CC[C@H](O)C1)c1ccc(F)c(OC(F)(F)F)c1` [Example 146, 2-(1,1-dioxido-3-oxo-3,4-dihydro-2H-benzo[b][1,4]thiazin-6-yl)-N-((S)-1-(4-fluoro-3-(trifluoromethoxy)phenyl)-2-((S)-3-hydroxypyrrolidin-1-yl)ethyl)-N-methylacetamide] came in with a concentration for a half-maximal effect (EC50) not above 50 nM.

As for `CN(C(=O)Cc1ccc2c(c1)NC(=O)C(C)(C)S2(=O)=O)[C@H](CN1CC[C@H](O)C1)c1cccc(OC(F)(F)F)c1` [Example 148, 2-(2,2-dimethyl-1,1-dioxido-3-oxo-3,4-dihydro-2H-benzo[b][1,4]thiazin-6-yl)-N-((S)-2-((S)-3-hydroxypyrrolidin-1-yl)-1-(3-(trifluoromethoxy)phenyl)ethyl)-N-methylacetamide], the concentration for a half-maximal effect (EC50) was not above 50 nM.

`CN(C(=O)Cc1ccc2c(c1)NC(=O)CS2(=O)=O)[C@H](CN1CC[C@H](O)C1)c1cc(F)cc(OCC(F)(F)F)c1` [Example 149, 2-(1,1-dioxido-3-oxo-3,4-dihydro-2H-benzo[b][1,4]thiazin-6-yl)-N-((S)-1-(3-fluoro-5-(2,2,2-trifluoroethoxy)phenyl)-2-((S)-3-hydroxypyrrolidin-1-yl)ethyl)-N-methylacetamide] came in with an EC50 not above 50 nM.

On to `CN(C(=O)Cc1ccc2c(c1)NC(=O)CS2)[C@H](CN1CC[C@H](O)C1)c1cccc(C#N)c1` [Example 152, N-((S)-1-(3-cyanophenyl)-2-((S)-3-hydroxypyrrolidin-1-yl)ethyl)-N-methyl-2-(3-oxo-3,4-dihydro-2H-benzo[b][1,4]thiazin-6-yl)acetamide], for which the EC50 is not above 50 nM.

`CN(C(=O)Cc1ccc2c(c1)NC(=O)CO2)[C@H](CN1CC[C@H](O)C1)c1cccc(C#N)c1` [Example 153, N-((S)-1-(3-cyanophenyl)-2-((S)-3-hydroxypyrrolidin-1-yl)ethyl)-N-methyl-2-(3-oxo-3,4-dihydro-2H-benzo[b][1,4]oxazin-6-yl)acetamide] registered an EC50 not above 50 nM.

The molecule `CN(C(=O)Cc1ccc2c(c1)NC(=O)CS2)[C@H](CN1CC[C@H](O)C1)c1cccc(C(=O)O)c1` [Example 154, 3-((S)-2-((S)-3-hydroxypyrrolidin-1-yl)-1-(N-methyl-2-(3-oxo-3,4-dihydro-2H-benzo[b][1,4]thiazin-6-yl)acetamido)ethyl)benzoic acid] came in with an EC50 not above 50 nM.

The molecule `CN(C(=O)Cc1ccc2c(c1)NC(=O)CO2)[C@H](CN1CC[C@H](O)C1)c1cccc(C(=O)O)c1` [Example 155, 3-((S)-2-((S)-3-hydroxypyrrolidin-1-yl)-1-(N-methyl-2-(3-oxo-3,4-dihydro-2H-benzo[b][1,4]oxazin-6-yl)acetamido)ethyl)benzoic acid] gave a 50% effective concentration (EC50) not above 50 nM.

Turning to `CN(C(=O)Cc1ccc2c(c1)NC(=O)C2)[C@H](CN1CC[C@H](O)C1)c1cccc(C#N)c1` [Example 156, N-((S)-1-(3-cyanophenyl)-2-((S)-3-hydroxypyrrolidin-1-yl)ethyl)-N-methyl-2-(2-oxoindolin-6-yl)acetamide], the 50% effective concentration (EC50) was not above 50 nM.

`O=C1Cc2cc(CC(=O)N[C@H](CN3CC[C@H](O)C3)c3ccccc3)ccc2N1` [Example 157, N-((S)-2-((S)-3-hydroxypyrrolidin-1-yl)-1-phenylethyl)-2-(2-oxoindolin-5yl)acetamide] returned an EC50 not above 50 nM.

Turning to `CN(C(=O)Cc1ccc2c(c1)NC(=O)C2)[C@H](CN1CC[C@H](O)C1)c1cccc(OCC(=O)O)c1` [Example 159, 2-(3-((S)-2-((S)-3-hydroxypyrrolidin-1-yl)-1-(N-methyl-2-(2-oxoindolin-6-yl)acetamido)ethyl)phenoxy)acetic acid], the half-maximal effective concentration (EC50) is not above 50 nM.

For `CN(C(=O)Cc1ccc2oc(=O)[nH]c2c1)[C@H](CN1CC[C@H](O)C1)c1cccc(C(N)=O)c1` [Example 160, 3-((S)-2-((S)-3-hydroxypyrrolidin-1-yl)-1-(N-methyl-2-(2-oxo-2,3-dihydrobenzo[d]oxazol-5-yl)acetamido)ethyl)benzamide], the EC50 was not above 50 nM.

In the case of `CN(C(=O)Cc1ccc2c(c1)NC(=O)C2)[C@H](CN1CC[C@H](F)C1)c1cccc(OCC(=O)NS(C)(=O)=O)c1` [Example 162, N-((S)-2-((S)-3-fluoropyrrolidin-1-yl)-1-(3-(2-(methylsulfonamido)-2-oxoethoxy)phenyl)ethyl)-N-methyl-2-(2-oxoindolin-6-yl)acetamide], the half-maximal effective concentration (EC50) was not above 50 nM.

The molecule `CN(C(=O)Cc1ccc2ncc(=O)[nH]c2c1)[C@H](CN1CC[C@H](O)C1)c1cccc(C(N)=O)c1` [Example 164, 3-((S)-2-((S)-3-hydroxypyrrolidin-1-yl)-1-(N-methyl-2-(3-oxo-3,4-dihydroquinoxalin-6-yl)acetamido)ethyl)benzamide] gave an EC50 not above 50 nM.

On to `CN(C(=O)Cc1ccc2c(c1)NC(=O)C2)[C@H](CN1CC[C@H](F)C1)c1cccc(C(N)=O)c1` [Example 165, 3-((S)-2-((S)-3-fluoropyrrolidin-1-yl)-1-(N-methyl-2-(2-oxoindolin-6-yl)acetamido)ethyl)benzamide], for which the EC50 was in the range of 101 to 1000 nM.

On to `CN(C(=O)Cc1ccc2sc(=O)[nH]c2c1)[C@H](CN1CC[C@H](O)C1)c1cccc(OCC(=O)O)c1` [Example 166, 2-(3-((S)-2-((S)-3-hydroxypyrrolidin-1-yl)-1-(N-methyl-2-(2-oxo-2,3-dihydrobenzo [d]thiazol-5-yl)acetamido)ethyl)phenoxy)acetic acid], for which the EC50 is not above 50 nM.
